Measured values as given in patent US20220296774A1, “SUPRAMOLECULAR STRUCTURES” (Cellularevolution Limited, priority 2019, published 2022).
No end group written: not given here. C16 = N-terminal C16 lipid

Legend:
Type in all cases: cell-based
[1] = tested on: human adipose-derived mesenchymal stem cells (hASCs); test: hASC proliferation (Alamar Blue); conditions: 50 μM; day 3 and 7; not significant
Protocol: (§1) Cell proliferation can be evaluated via Alamar Blue assays, with cell number extrapolated from standard calibration curves using known number of cells for each experiment. Cells are incubated at 37° C. with resazurin reagent at 50 μM (Sigma Aldrich), prepared in 1:10 dilution using fresh culture medium, for […], after which 100 μl of culture supernatants (in triplicate) are sampled for fluorescence emission analysis at 590 nm using either a Fluoroskan Ascent fluorescent spectrophotometer or a Varioskan™ Lux (both from Thermo Scientific). The incubation time differ depending on the experiment and on the cell type. • 1.4 Collagen Deposit Assay
The hASCs were also cultured with RGDS lipopeptide previously solubilised above its c.a.c. in water and then diluted in SFM at the final concentration of 50 μM (FIG. 4). This was to understand if the different self-assembled structures affected hASCs behaviour as found for human stromal progenitor cell.
(§2) Moreover, hASCs were also cultured with Lumican or Matrixyl lipopeptides previously solubilised above their c.a.c. in water and then diluted in SFM at the final concentration of 50 μM (FIG. 5).

[2] = tested on: human stromal progenitor cells; test: Human stromal progenitor cell proliferation (Alamar Blue), lipopeptides as media supplement
Protocol: as §1
(§3) The effect of the different nanostructure on biocompatibility and bioactivity was investigated next. For this study, the lipopeptides were used as a media supplement, rather than coating. The bioactivity of the lipopeptides has been evaluated for three different cell types, namely human stromal progenitor cells, human adipose-derived mesenchymal stem cells (hASCs) and immortalized mouse myoblast cell line (C2C12). • 2.2.1 Effect on Human Stromal Progenitor Cells
(§4) The inventors hypothesised that the effect exerted by the same lipopeptide molecule can be different depending on the solvent in which the self-assembly is initiated. Lumican, Matrixyl and RGDS lipopeptides were investigated as supplements to culture media using stock solutions which were previously self-assembled either in water or in medium. Specifically, cells were cultured for 7 days and proliferation was assessed at day 3 and 7, whereas collagen deposition was analysed at day 7.

[3] = tested on: human adipose-derived mesenchymal stem cells (hASCs); test: Collagen deposited by hASCs (Sirius Red assay); conditions: 7 days in culture, not significant
Protocol: (§5) The amount of collagen deposited by the cells is investigated using the Sirius Red assay (Jimenez et al., 1985). In specific, cells are fixed in 70% ice-cold ethanol and transferred to −80° C. for at least 10 min to ensure the complete fixation of the material. Subsequently, the ethanol solution is removed and each well was gently washed with distilled water. Cells are treated with Sirius-red/picric acid solution (Sigma Aldrich) and incubated overnight at 4° C. with gentle agitation. The following day, any unbound dye is removed and cells were gently rinsed with distilled water. Cells are then treated with 500 μl of 1M NaOH (Fisher Scientific) at room temperature for 10 min under agitation to disperse the solution and 100 μL aliquots of each sample were then transferred in triplicate to a 96 well plate. The total collagen is calculated by comparing the absorbance of the resulting samples at 490 nm, read using either a Multiskan Ascent™ or a Varioskan™ Lux (both from Thermo Fisher Scientific), to that of known standard concentrations of collagen. Each tested condition is performed in triplicate. • 1.5 Atomic Force Microscopy (AFM)
as §2

[4] = tested on: human stromal progenitor cells; test: Collagen deposited by human stromal progenitor cells (Sirius Red assay); conditions: for amount of collagen deposited, higher compared to PA self-assembled in medium: self-assembled in water
Protocol: as §5, §3, §4

[5] = tested on: immortalized mouse myoblast cell line (C2C12); test: C2C12 proliferation (Alamar Blue); conditions: solubilised in medium; 25 and 50 μM; since day 3
Protocol: as §1
C2C12 were cultured up to 7 days in serum-free medium (SFM) supplemented either with Lumican or Matrixyl or RGDS lipopeptides. Each lipopeptide stock was prepared above its c.a.c. either in serum-free medium (SFM) or in water (H2O). C2C12 proliferation was evaluated using Alamar Blue assay at day 3 and 7. The amount of deposited collagen was quantified using the Sirius Red assay at day 7.

[6] = tested on: immortalized mouse myoblast cell line (C2C12); test: Collagen deposited by C2C12 (Sirius Red assay); conditions: 25 and 50 μM; day 7
Protocol: as §5, with “Each tested condition is performed in triplicate. • 1.5 Atomic Force Microscopy (AFM)” left out
C2C12 were cultured up to 7 days in serum-free medium (SFM) supplemented either with Lumican or Matrixyl or RGDS lipopeptides. […] C2C12 proliferation was evaluated using Alamar Blue assay at day 3 and 7. The amount of deposited collagen was quantified using the Sirius Red assay at day 7.

Row | Substance | cell proliferation when solubilised in medium rather than water [1] | cell viability compared to the control ([2]; self-assembled in SFM, day 7, both conditions) | collagen deposited by hASCs ([3]; solubilised in SFM) | amount of deposited collagen compared to the control ([4]; self-assembled in SFM, day 7) | amount of deposited collagen, higher compared to lipopeptide self-assembled in water ([4]; self-assembled in SFM, day 7) | cell proliferation [5] | collagen deposited when solubilised in SFM rather than water [6] | cell proliferation compared to non-supplemented SFM ([2]; self-assembled in medium, 12 and 25 μM) | cell proliferation compared to non-supplemented serum free medium (SFM) ([2]; self-assembled in water, supplemented at 25 μM and 12 μM, day 3 and 7) | collagen deposited by hASCs ([3]; solubilised in water) | collagen deposition compared to the control (SFM) ([4]; independently of the solvent (water or medium) of self-assembly, 7 days) | amount of collagen deposited, higher compared to PA self-assembled in medium ([4]; 12 μM, 7 days) | amount of collagen deposited, higher compared to PA self-assembled in medium ([4]; 25 μM, 7 days)
1 | C16-KTTKS [Matrixyl lipopeptide] | slightly increase cell proliferation | dramatically decreased cell viability | slightly increased the collagen deposited | significantly increased the amount of deposited collagen | 55% | significantly increased | significantly increased | – | – | – | – | – | –
2 | C16-YEALRVANEVTLN [Lumican lipopeptide] | slightly increase cell proliferation | – | – | – | – | significantly increased cell proliferation | significantly increased | slightly increased cell proliferation only up to day 3 | significantly increased cell proliferation | slightly increased the collagen deposited | significantly increased collagen deposition | 15% | ≈ 75%
